Active and inactive are the calls of the source.
Experiments:
Aminopeptidase N = target: T1, Aminopeptidase N (Plasmodium falciparum FcB1/Columbia, UniProt O96935); test: P. falciparum M1AAP inhibitors, biochemical, fluorogenic H-Leu-NHMec substrate, 1536-well (AID 1445); design: species or system Plasmodium falciparum 3D7, 3D7
T1 sequence (O96935 whole entry): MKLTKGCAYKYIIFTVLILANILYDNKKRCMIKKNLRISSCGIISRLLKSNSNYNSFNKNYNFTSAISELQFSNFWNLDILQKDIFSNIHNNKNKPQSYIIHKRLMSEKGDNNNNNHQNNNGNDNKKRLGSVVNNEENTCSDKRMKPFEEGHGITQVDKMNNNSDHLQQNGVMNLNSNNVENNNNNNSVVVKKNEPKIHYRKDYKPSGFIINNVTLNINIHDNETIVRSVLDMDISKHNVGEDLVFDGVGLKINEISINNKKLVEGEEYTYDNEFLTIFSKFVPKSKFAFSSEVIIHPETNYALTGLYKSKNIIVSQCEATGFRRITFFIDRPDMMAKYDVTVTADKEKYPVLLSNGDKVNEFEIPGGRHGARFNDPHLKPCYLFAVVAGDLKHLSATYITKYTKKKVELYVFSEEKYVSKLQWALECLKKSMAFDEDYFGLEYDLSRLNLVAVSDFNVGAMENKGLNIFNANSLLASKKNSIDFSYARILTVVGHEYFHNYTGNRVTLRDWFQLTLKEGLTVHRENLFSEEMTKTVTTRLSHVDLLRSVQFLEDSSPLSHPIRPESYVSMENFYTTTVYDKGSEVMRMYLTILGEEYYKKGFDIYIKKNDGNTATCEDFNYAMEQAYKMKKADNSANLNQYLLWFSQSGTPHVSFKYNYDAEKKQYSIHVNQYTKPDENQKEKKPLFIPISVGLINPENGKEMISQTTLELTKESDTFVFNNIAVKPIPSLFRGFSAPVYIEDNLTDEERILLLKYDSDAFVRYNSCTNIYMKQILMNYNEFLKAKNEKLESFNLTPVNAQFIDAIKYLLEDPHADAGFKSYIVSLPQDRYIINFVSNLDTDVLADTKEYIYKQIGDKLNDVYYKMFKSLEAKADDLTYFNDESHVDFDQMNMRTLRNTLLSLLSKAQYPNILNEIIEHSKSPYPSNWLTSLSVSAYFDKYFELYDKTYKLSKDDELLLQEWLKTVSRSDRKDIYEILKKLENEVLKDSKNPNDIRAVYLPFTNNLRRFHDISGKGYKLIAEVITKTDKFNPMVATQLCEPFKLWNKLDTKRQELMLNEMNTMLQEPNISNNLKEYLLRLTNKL

SUMO-activating enzyme [1] = target: T2, SUMO-activating enzyme (Homo sapiens, UniProt Q9UBT2); test: SUMOylation inhibitor hit validation, confirmation, SUMOylation inhibitor project, biochemical, AlphaScreen (AID 2018); format: functional
T2 sequence (Q9UBE0 whole entry): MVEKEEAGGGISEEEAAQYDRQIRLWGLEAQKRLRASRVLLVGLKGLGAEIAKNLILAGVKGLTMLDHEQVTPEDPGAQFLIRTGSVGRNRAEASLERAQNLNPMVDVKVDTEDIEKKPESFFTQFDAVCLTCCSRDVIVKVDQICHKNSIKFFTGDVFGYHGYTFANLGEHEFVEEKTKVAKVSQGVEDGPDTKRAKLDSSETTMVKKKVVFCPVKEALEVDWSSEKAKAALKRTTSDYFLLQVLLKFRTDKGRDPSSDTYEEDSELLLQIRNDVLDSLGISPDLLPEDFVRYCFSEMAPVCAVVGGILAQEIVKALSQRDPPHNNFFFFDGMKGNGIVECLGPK
T2 sequence (Q9UBT2 whole entry): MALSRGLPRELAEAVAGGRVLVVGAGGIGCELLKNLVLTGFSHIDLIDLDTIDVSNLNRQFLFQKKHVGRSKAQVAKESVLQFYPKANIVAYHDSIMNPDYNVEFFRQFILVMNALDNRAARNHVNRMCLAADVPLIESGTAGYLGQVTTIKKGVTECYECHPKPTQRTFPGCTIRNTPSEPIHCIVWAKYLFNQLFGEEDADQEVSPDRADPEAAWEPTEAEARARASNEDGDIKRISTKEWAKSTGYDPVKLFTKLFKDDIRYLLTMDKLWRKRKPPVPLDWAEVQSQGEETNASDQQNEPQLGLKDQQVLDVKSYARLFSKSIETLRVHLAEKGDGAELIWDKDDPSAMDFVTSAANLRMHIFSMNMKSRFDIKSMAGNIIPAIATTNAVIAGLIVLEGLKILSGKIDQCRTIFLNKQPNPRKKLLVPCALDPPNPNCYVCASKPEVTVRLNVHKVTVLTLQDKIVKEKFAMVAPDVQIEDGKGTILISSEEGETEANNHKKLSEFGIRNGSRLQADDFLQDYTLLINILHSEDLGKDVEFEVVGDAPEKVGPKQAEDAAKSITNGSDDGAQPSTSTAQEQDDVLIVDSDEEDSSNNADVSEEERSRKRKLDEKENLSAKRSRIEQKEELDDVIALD

Large T antigen = Large T antigen (Simian virus 40, UniProt P03070); format: functional, Betapolyomavirus macacae;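 also: Confirmatory-stage PubChem screen for compounds that inhibit SV40 T antigen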
Chain of Large T antigen (P03070 whole entry, the tested form may be a part): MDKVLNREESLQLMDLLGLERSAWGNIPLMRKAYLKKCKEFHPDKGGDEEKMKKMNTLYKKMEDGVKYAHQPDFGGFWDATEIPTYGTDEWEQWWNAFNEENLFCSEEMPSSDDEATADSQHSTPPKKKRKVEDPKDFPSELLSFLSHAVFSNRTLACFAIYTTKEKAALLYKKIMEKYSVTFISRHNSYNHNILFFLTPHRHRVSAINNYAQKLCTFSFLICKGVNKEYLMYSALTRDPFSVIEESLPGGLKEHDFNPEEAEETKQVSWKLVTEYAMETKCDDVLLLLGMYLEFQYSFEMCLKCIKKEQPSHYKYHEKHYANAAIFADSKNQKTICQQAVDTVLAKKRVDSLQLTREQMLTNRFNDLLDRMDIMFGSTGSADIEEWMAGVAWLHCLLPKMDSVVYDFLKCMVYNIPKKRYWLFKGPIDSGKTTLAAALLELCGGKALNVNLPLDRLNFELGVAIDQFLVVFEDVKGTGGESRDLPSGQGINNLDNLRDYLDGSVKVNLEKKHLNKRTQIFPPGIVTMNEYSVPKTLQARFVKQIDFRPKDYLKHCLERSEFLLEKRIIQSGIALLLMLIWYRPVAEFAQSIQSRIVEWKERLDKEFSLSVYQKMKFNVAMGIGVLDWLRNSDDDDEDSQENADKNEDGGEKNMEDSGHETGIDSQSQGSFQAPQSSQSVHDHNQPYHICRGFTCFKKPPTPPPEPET

[2] = HIV-1 Env-mediated cell fusion inhibitors, dose response, CCR5-tropic Env (AID 2279); format: functional
SUMO-activating enzyme [3] = target: T2, SUMO-activating enzyme; test: inhibitors of in vitro SUMOylation cascade, primary screen, biochemical, HTRF, uHTS (AID 2006); format: protein-complex assay
[4] = target: T3, Induced myeloid leukemia cell differentiation protein Mcl-1 (Homo sapiens, UniProt Q07820); test: MCL1-BIM BH3 interaction inhibitors, dose response, biochemical, fluorescence polarization, BIM-BH3 peptide, 1536-well (AID 2217)
T3 sequence (Q07820 whole entry): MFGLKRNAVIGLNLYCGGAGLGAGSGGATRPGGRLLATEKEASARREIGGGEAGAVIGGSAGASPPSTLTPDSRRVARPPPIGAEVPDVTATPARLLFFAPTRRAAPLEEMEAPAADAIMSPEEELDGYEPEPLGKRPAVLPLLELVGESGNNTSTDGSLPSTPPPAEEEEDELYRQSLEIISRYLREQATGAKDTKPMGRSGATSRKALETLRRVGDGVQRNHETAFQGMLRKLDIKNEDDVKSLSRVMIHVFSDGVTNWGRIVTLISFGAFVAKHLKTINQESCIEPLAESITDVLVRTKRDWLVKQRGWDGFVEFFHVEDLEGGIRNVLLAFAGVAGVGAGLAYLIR

Bcl-2-like protein 1 = Bcl-2-like protein 1 (Homo sapiens, UniProt Q07817); test: BCL-XL inhibitors, dose response, selectivity assay for MCL1 inhibitor project, biochemical, fluorescence polarization, 1536-well (AID 2218)
Chain of Bcl-2-like protein 1 (Q07817 whole entry): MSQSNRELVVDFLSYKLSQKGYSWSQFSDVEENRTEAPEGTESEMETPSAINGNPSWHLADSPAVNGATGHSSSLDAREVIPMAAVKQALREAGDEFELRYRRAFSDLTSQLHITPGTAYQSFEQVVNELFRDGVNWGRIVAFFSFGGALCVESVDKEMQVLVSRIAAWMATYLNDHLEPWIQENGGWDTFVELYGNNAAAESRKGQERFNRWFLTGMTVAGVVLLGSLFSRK

[5] = target: T3, Induced myeloid leukemia cell differentiation protein Mcl-1; format: functional
Cysteine protease ATG4B = target: T4, Cysteine protease ATG4B (Homo sapiens, UniProt Q9Y4P1); format: functional;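 also: Fluorescence-based dose-response confirmation assay measuring inhibition of ATG4B activity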
T4 sequence (Q9Y4P1 whole entry): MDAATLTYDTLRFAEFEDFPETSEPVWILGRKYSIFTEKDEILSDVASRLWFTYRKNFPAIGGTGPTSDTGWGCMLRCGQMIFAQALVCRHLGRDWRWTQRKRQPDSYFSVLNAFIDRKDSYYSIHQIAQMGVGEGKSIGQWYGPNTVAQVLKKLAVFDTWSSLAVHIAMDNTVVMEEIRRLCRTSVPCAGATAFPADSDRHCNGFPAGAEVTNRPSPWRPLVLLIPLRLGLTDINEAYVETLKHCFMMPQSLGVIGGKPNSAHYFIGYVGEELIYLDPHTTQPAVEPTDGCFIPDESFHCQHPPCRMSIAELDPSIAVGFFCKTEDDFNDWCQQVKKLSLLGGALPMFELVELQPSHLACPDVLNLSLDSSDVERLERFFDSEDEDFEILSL

Phospholipase A2 = Phospholipase A2 (Homo sapiens, UniProt P04054); format: functional;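 also: confirmatory dose-response counterscreen on phospholipase A2, testing hits that came from an ultra-high-throughput screen for ATG4B inhibitors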
Chain of Phospholipase A2 (P04054 whole entry): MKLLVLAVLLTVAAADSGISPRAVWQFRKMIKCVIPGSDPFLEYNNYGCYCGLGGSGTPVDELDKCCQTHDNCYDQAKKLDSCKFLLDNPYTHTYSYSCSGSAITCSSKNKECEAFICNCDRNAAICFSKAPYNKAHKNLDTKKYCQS

Vero = Vero cell cytotoxicity, cytotoxicity control for flavivirus capping enzyme inhibitors (AID 588742); format: functional; details: Chlorocebus sabaeus
Genome polyprotein = Genome polyprotein (dengue virus type 2, UniProt P29990); test: Dengue-2 NS5 methyltransferase inhibitors, primary screen, biochemical, confirmation dose response (AID 588689); format: functional
[6] = target: 26S proteasome non-ATPase regulatory subunit 14 (Homo sapiens, UniProt O00487); test: inhibition of proteasome subunit RPN11 – biochemical, fluorescence polarization, uHTS hits, confirmation (AID 602368); format: functional
Chain of 26S proteasome non-ATPase regulatory subunit 14 (O00487 whole entry): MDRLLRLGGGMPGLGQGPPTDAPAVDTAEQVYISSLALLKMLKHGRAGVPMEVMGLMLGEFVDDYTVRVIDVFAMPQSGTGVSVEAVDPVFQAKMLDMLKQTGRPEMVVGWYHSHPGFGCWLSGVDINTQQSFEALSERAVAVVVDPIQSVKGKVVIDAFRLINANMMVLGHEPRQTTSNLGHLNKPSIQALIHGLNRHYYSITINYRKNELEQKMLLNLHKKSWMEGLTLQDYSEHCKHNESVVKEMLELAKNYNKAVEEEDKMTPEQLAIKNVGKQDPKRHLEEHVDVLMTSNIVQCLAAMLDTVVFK

[7] = target: 72 kDa type IV collagenase (Homo sapiens, UniProt P08253); test: Dose Response validation of uHTS RPN11 inhibitor hits using a MMP-2 Fluorescence assay.; format: functional
Chain of 72 kDa type IV collagenase (P08253 whole entry): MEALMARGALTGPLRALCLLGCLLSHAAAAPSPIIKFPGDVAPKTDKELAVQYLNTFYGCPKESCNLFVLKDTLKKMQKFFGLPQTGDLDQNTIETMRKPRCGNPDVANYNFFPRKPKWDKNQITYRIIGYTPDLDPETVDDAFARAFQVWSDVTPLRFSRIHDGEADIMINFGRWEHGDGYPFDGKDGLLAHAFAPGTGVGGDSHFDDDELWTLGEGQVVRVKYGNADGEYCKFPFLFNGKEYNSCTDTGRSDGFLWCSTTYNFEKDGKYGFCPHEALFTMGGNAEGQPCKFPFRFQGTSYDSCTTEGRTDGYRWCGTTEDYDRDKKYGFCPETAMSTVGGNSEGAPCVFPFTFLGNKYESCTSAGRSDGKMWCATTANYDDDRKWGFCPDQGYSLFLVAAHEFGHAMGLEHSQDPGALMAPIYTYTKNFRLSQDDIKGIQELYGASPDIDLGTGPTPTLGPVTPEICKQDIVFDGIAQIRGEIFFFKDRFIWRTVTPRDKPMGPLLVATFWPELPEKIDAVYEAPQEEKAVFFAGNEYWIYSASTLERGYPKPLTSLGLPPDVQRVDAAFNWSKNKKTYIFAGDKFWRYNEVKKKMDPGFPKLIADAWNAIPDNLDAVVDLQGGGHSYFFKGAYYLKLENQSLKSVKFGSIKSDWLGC

Prothrombin = Prothrombin (Bos taurus, UniProt P00735); test: thrombin inhibition, dose response, biochemical, fluorescence polarization, uHTS hits (AID 602369); format: functional
[8] = target: T5, Methionyl-tRNA synthetase, putative (Trypanosoma brucei brucei, UniProt Q38C91); format: functional, Trypanosoma brucei brucei strain 927/4 GUTat10.1
T5 sequence (Q38C91 whole entry): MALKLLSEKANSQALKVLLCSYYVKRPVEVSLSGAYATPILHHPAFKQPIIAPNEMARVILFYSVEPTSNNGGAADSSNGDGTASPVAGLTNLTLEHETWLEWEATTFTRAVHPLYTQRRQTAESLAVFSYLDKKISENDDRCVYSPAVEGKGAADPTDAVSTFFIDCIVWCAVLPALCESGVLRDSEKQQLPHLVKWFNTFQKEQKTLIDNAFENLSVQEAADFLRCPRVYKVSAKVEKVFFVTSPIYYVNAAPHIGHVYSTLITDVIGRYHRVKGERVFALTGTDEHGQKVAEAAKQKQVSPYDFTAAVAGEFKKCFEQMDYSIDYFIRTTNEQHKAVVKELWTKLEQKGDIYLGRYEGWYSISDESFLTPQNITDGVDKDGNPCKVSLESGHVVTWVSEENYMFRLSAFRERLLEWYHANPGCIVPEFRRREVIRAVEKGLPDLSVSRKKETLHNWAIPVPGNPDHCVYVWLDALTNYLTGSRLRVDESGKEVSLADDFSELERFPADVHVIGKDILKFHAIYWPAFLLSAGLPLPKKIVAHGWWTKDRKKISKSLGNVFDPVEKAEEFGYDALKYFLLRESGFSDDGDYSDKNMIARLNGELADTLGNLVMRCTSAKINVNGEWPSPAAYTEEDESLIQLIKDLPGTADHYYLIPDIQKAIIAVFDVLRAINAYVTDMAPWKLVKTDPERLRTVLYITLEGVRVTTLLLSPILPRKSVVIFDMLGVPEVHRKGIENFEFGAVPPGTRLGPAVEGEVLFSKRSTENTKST

[9] = Counterscreen for inhibitors of Trypanosoma brucei methionyl tRNA synthetase (MetRS): Luminescence-based cell-based high throughput dose response assay to identify compounds that are cytotoxic to Jurkat human T lymphocyte cells.; format: functional
[10] = target: T5, Methionyl-tRNA synthetase, putative; format: functional, Trypanosoma brucei brucei strain 927/4 GUTat10.1; remark: listed apart in the source
[11] = Artemis endonuclease inhibitor potency, dose response, biochemical, fluorescence intensity (AID 720701); format: functional;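 also: Artemis endonuclease enzyme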
[12] = target: T6, RNA-binding protein pos-1 (Caenorhabditis elegans, UniProt G5EF15); test: inhibitors of POS-1/mex-3 RNA binding, dose response, biochemical, fluorescence polarization (AID 1964);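 also: purified POS-1 fused to maltose binding protein made in E. coli; potency of compounds blocking POS-1 binding to fluorescent RNA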
T6 sequence (G5EF15 whole entry): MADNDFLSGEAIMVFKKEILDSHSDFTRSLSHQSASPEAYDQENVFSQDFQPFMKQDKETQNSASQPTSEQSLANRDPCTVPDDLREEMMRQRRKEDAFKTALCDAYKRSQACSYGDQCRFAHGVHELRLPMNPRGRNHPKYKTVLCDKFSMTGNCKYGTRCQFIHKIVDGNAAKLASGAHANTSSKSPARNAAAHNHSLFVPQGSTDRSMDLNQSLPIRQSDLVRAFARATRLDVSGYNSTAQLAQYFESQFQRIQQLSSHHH

[13] = Counterscreen for IDE inhibitors: Luminescence-based cell-based high throughput dose response assay to identify compounds that are cytotoxic to HEK cells. [Related pubchem assays: 434962 (Primary screen (IDE inhibitors in singlicate)), 449730 (Counterscreen (Cytotoxicity in triplicate)), 435028 (Confirmation (IDE inhibitors in triplicate)) …; format: functional; details: HEK293
Insulin-degrading enzyme = target: T7, Insulin-degrading enzyme (Homo sapiens, UniProt P14735); test: Dose Response: Fluorescence polarization-based cell-based high throughput dose response assay for inhibitors of insulin-degrading enzyme (IDE). [Related pubchem assays: 434962 (Primary screen (IDE inhibitors in singlicate)), 449730 (Counterscreen (Cytotoxicity in triplicate)), 435028 (Confirmation (IDE inhibitors in triplicate)), 434984 (Summary …; format: functional
T7 sequence (P14735 whole entry): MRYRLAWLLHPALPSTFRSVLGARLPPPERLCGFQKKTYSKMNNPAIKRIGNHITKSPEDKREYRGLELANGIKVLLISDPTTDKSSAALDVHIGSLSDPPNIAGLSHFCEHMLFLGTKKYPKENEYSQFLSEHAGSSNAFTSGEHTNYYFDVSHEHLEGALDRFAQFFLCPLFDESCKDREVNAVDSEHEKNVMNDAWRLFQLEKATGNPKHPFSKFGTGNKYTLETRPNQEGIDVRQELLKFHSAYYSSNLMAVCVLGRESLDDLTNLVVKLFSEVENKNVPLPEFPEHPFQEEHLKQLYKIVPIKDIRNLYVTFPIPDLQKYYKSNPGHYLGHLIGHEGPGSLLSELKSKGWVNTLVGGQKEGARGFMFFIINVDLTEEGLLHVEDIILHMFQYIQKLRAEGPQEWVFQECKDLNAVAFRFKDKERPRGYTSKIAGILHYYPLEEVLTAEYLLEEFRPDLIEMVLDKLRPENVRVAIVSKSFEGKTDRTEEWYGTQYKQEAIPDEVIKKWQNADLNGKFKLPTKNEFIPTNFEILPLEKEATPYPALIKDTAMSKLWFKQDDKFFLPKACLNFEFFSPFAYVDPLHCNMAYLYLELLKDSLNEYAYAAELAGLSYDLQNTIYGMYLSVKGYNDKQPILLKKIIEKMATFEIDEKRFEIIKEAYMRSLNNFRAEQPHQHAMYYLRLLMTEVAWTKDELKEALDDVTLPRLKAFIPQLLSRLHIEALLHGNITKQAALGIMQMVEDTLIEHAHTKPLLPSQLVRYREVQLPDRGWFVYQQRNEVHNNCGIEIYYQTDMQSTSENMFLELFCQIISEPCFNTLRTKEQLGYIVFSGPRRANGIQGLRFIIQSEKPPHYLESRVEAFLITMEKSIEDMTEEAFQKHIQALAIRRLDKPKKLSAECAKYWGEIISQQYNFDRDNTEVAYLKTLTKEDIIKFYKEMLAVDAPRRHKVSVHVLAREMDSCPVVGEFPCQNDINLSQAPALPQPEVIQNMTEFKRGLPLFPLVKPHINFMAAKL

O=C(N/N=C/c1ccc(-c2ccc(S(=O)(=O)Nc3ncccn3)cc2)o1)c1cc2ccccc2cc1O
IC50 (Aminopeptidase N): 42.3 µM (active)
IC50 (SUMO-activating enzyme [1]): 2.21 µM (active)
IC50 (Large T antigen): 52.8 µM (active)
IC50 [2]: 17 µM (active)
IC50 (SUMO-activating enzyme [3]): 12.4 µM (active)
IC50 [4]: > 4.03 µM (active)
IC50 (Bcl-2-like protein 1): > 109 µM (not active)
IC50 [5]: 1.63 µM (active)
IC50 (Cysteine protease ATG4B): 5.98 µM (active)
IC50 (Phospholipase A2): 20.3 µM (inactive)
CC50 (Vero): 26 µM (active)
IC50 (Genome polyprotein): 76.5 µM (active)
IC50 [6]: 33.3 µM (active)
IC50 [7]: > 100 µM (inactive)
IC50 (Prothrombin): 75.6 µM (active)
IC50 [8]: 15.8 µM (inactive)
IC50 [9]: 83.3 µM (inactive)
IC50 [10]: 18.6 µM (inactive)
IC50 [11]: 11.4 µM (active)

COc1ccc(/N=C(\C)c2sc3ccccc3c2O)cc1
EC50 [12]: > 300 µM (not active)
IC50 [13]: > 55.7 µM (not active)
IC50 (Insulin-degrading enzyme): > 18.7 µM (not active)
